“And” between values parts separate entries of the source, which are not always exact repeats. Equal values may be shown once.
Experiment: xn = mol fraction of the nth substance listed
Settings: Fluid (supercritical or subcritical phases), Parallel plate method

CC [ethane] + O=C=O
Settings | thermal conductivity
296.64 K, Amount density=7450 mol/m3, x2 = 0.25 | 0.186 W/m/K
296.65 K, Amount density=7450 mol/m3, x2 = 0.25 | 0.183 W/m/K
296.66 K, Amount density=6830 mol/m3, x2 = 0.25 | 0.138 W/m/K
296.69 K, Amount density=7450 mol/m3, x2 = 0.25 | 0.186 W/m/K
296.7 K, Amount density=6870 mol/m3, x2 = 0.25 | 0.177 W/m/K and 0.188 W/m/K
296.7 K, Amount density=7450 mol/m3, x2 = 0.25 | 0.154 W/m/K
296.71 K, Amount density=6870 mol/m3, x2 = 0.25 | 0.214 W/m/K
296.71 K, Amount density=7450 mol/m3, x2 = 0.25 | 0.175 W/m/K
296.72 K, Amount density=7450 mol/m3, x2 = 0.25 | 0.164 W/m/K and 0.166 W/m/K
296.73 K, Amount density=6870 mol/m3, x2 = 0.25 | 0.195 W/m/K
296.74 K, Amount density=6830 mol/m3, x2 = 0.25 | 0.199 W/m/K
296.74 K, Amount density=7450 mol/m3, x2 = 0.25 | 0.145 W/m/K
296.75 K, Amount density=6870 mol/m3, x2 = 0.25 | 0.204 W/m/K
296.75 K, Amount density=7450 mol/m3, x2 = 0.25 | 0.157 W/m/K
296.76 K, Amount density=6870 mol/m3, x2 = 0.25 | 0.189 W/m/K
296.77 K, Amount density=6870 mol/m3, x2 = 0.25 | 0.195 W/m/K
296.79 K, Amount density=6830 mol/m3, x2 = 0.25 | 0.218 W/m/K
296.8 K, Amount density=6870 mol/m3, x2 = 0.25 | 0.168 W/m/K
296.8 K, Amount density=8450 mol/m3, x2 = 0.25 | 0.0921 W/m/K
296.82 K, Amount density=6710 mol/m3, x2 = 0.26 | 0.118 W/m/K
296.83 K, Amount density=6870 mol/m3, x2 = 0.25 | 0.157 W/m/K
296.84 K, Amount density=6710 mol/m3, x2 = 0.26 | 0.111 W/m/K
296.84 K, Amount density=6830 mol/m3, x2 = 0.25 | 0.142 W/m/K
296.85 K, Amount density=5680 mol/m3, x2 = 0.25 | 0.0729 W/m/K
296.86 K, Amount density=2940 mol/m3, x2 = 0.25 | 0.0306 W/m/K
296.87 K, Amount density=877 mol/m3, x2 = 0.26 | 0.0217 W/m/K
296.87 K, Amount density=6710 mol/m3, x2 = 0.26 | 0.11 W/m/K
296.88 K, Amount density=446 mol/m3, x2 = 0.25 | 0.021 W/m/K
296.88 K, Amount density=7450 mol/m3, x2 = 0.25 | 0.145 W/m/K
296.88 K, Amount density=7490 mol/m3, x2 = 0.25 | 0.139 W/m/K
297.16 K, Amount density=3090 mol/m3, x2 = 0.26 | 0.0313 W/m/K
297.44 K, Amount density=8450 mol/m3, x2 = 0.25 | 0.0821 W/m/K
297.46 K, Amount density=5680 mol/m3, x2 = 0.25 | 0.0677 W/m/K
297.46 K, Amount density=6830 mol/m3, x2 = 0.25 | 0.11 W/m/K and 0.102 W/m/K
297.47 K, Amount density=2940 mol/m3, x2 = 0.25 | 0.0305 W/m/K
297.47 K, Amount density=6830 mol/m3, x2 = 0.25 | 0.102 W/m/K
297.48 K, Amount density=7490 mol/m3, x2 = 0.25 | 0.111 W/m/K
297.5 K, Amount density=10780 mol/m3, x2 = 0.25 | 0.0671 W/m/K
297.52 K, Amount density=446 mol/m3, x2 = 0.25 | 0.021 W/m/K
298.49 K, Amount density=9120 mol/m3, x2 = 0.74 | 0.06 W/m/K
298.69 K, Amount density=6870 mol/m3, x2 = 0.25 | 0.169 W/m/K
298.95 K, Amount density=7450 mol/m3, x2 = 0.25 | 0.081 W/m/K
298.99 K, Amount density=5680 mol/m3, x2 = 0.25 | 0.0623 W/m/K
298.99 K, Amount density=6830 mol/m3, x2 = 0.25 | 0.0779 W/m/K
298.99 K, Amount density=7490 mol/m3, x2 = 0.25 | 0.0811 W/m/K
298.99 K, Amount density=10780 mol/m3, x2 = 0.25 | 0.0684 W/m/K
299 K, Amount density=2940 mol/m3, x2 = 0.25 | 0.0305 W/m/K
299.01 K, Amount density=446 mol/m3, x2 = 0.25 | 0.0211 W/m/K
299.01 K, Amount density=6630 mol/m3, x2 = 0.74 | 0.0467 W/m/K
299.02 K, Amount density=446 mol/m3, x2 = 0.25 | 0.0212 W/m/K
301.91 K, Amount density=7730 mol/m3, x2 = 0.5 | 0.0493 W/m/K
301.93 K, Amount density=6710 mol/m3, x2 = 0.26 | 0.0624 W/m/K
301.95 K, Amount density=7530 mol/m3, x2 = 0.5 | 0.0505 W/m/K
301.96 K, Amount density=6960 mol/m3, x2 = 0.5 | 0.0531 W/m/K
301.98 K, Amount density=435 mol/m3, x2 = 0.5 | 0.0203 W/m/K
302 K, Amount density=6830 mol/m3, x2 = 0.25 | 0.0658 W/m/K
302.01 K, Amount density=877 mol/m3, x2 = 0.26 | 0.0222 W/m/K
302.01 K, Amount density=2940 mol/m3, x2 = 0.5 | 0.0281 W/m/K
302.02 K, Amount density=446 mol/m3, x2 = 0.25 | 0.0214 W/m/K
302.02 K, Amount density=5680 mol/m3, x2 = 0.25 | 0.056 W/m/K
302.04 K, Amount density=2940 mol/m3, x2 = 0.25 | 0.0307 W/m/K
302.04 K, Amount density=6830 mol/m3, x2 = 0.25 | 0.0658 W/m/K
302.05 K, Amount density=8450 mol/m3, x2 = 0.25 | 0.0676 W/m/K
302.06 K, Amount density=7490 mol/m3, x2 = 0.25 | 0.0699 W/m/K
302.11 K, Amount density=3090 mol/m3, x2 = 0.26 | 0.0311 W/m/K
302.25 K, Amount density=6630 mol/m3, x2 = 0.74 | 0.0436 W/m/K
302.43 K, Amount density=5650 mol/m3, x2 = 0.5 | 0.0436 W/m/K
307.99 K, Amount density=2940 mol/m3, x2 = 0.5 | 0.0279 W/m/K
308 K, Amount density=7730 mol/m3, x2 = 0.5 | 0.0462 W/m/K
308.01 K, Amount density=6830 mol/m3, x2 = 0.25 | 0.0567 W/m/K
308.02 K, Amount density=6960 mol/m3, x2 = 0.5 | 0.0468 W/m/K
308.02 K, Amount density=7490 mol/m3, x2 = 0.25 | 0.0614 W/m/K
308.03 K, Amount density=7530 mol/m3, x2 = 0.5 | 0.0469 W/m/K
308.06 K, Amount density=5650 mol/m3, x2 = 0.5 | 0.041 W/m/K
308.06 K, Amount density=7450 mol/m3, x2 = 0.25 | 0.0646 W/m/K
308.06 K, Amount density=9120 mol/m3, x2 = 0.74 | 0.0485 W/m/K
308.07 K, Amount density=435 mol/m3, x2 = 0.5 | 0.0207 W/m/K
308.07 K, Amount density=446 mol/m3, x2 = 0.25 | 0.0219 W/m/K
308.09 K, Amount density=435 mol/m3, x2 = 0.5 | 0.0207 W/m/K
308.1 K, Amount density=877 mol/m3, x2 = 0.26 | 0.0228 W/m/K
308.12 K, Amount density=10780 mol/m3, x2 = 0.25 | 0.0659 W/m/K
308.15 K, Amount density=2940 mol/m3, x2 = 0.25 | 0.031 W/m/K
308.16 K, Amount density=3090 mol/m3, x2 = 0.26 | 0.0314 W/m/K
308.18 K, Amount density=6630 mol/m3, x2 = 0.74 | 0.0413 W/m/K
308.18 K, Amount density=6710 mol/m3, x2 = 0.26 | 0.054 W/m/K
308.23 K, Amount density=8450 mol/m3, x2 = 0.25 | 0.0617 W/m/K
308.7 K, Amount density=5680 mol/m3, x2 = 0.25 | 0.0516 W/m/K
318.04 K, Amount density=9120 mol/m3, x2 = 0.74 | 0.0354 W/m/K
318.11 K, Amount density=435 mol/m3, x2 = 0.5 | 0.0218 W/m/K
318.11 K, Amount density=6630 mol/m3, x2 = 0.74 | 0.0382 W/m/K
318.12 K, Amount density=7530 mol/m3, x2 = 0.5 | 0.0445 W/m/K
318.13 K, Amount density=5650 mol/m3, x2 = 0.5 | 0.0411 W/m/K
318.13 K, Amount density=6960 mol/m3, x2 = 0.5 | 0.0425 W/m/K
318.13 K, Amount density=7490 mol/m3, x2 = 0.25 | 0.0559 W/m/K
318.13 K, Amount density=7730 mol/m3, x2 = 0.5 | 0.0403 W/m/K
318.14 K, Amount density=2940 mol/m3, x2 = 0.5 | 0.0293 W/m/K
318.14 K, Amount density=6830 mol/m3, x2 = 0.25 | 0.0532 W/m/K
318.14 K, Amount density=10780 mol/m3, x2 = 0.25 | 0.065 W/m/K
318.15 K, Amount density=446 mol/m3, x2 = 0.25 | 0.0232 W/m/K
318.15 K, Amount density=5650 mol/m3, x2 = 0.5 | 0.0398 W/m/K
318.16 K, Amount density=2940 mol/m3, x2 = 0.25 | 0.0316 W/m/K
318.16 K, Amount density=8450 mol/m3, x2 = 0.25 | 0.049 W/m/K
318.17 K, Amount density=3090 mol/m3, x2 = 0.26 | 0.0318 W/m/K
318.19 K, Amount density=877 mol/m3, x2 = 0.26 | 0.0236 W/m/K
318.21 K, Amount density=6710 mol/m3, x2 = 0.26 | 0.0503 W/m/K
318.27 K, Amount density=5680 mol/m3, x2 = 0.25 | 0.0481 W/m/K

— the NIST ThermoML archive (doi:10.1007/s10765-008-0482-1)
